According to patent US12404260B2, “Pyridine rings containing derivatives as MALT1 inhibitors” (Janssen Pharmaceutica NV, priority 2019, dated 2025):

Key:
[1] = tested on: secretion of IL6 by OCI-LY3 ABC-DLBCL cells; assay: Human IL6 Mesoscale assay (OCI-LY3); format: cell-based; settings: 24 h incubation, IL6 in supernatant
Procedure: (§1) NFKB signaling regulates the secretion of multiple cytokines, including IL6 and IL10. Secretion of the cytokines IL6 and IL10 by OCI-LY3 ABC-DLBCL cells was measured using a mesoscale assay. Inhibition of NFKB signaling by MALT1 inhibitors results in a decrease of IL6/10 secretion.
(§2) OCI-LY3 cells were propagated in RPMI-1640 (Sigma Aldrich) supplemented with 10% fetal bovine serum (HyClone), 1 mM sodium pyruvate (Invitrogen), 2 mM L-glutamine (Sigma Aldrich) and 1% PenStrep (Sigma Aldrich). Cell passage number should not exceed 30. Cells should be kept between 0.5-2.5 million cells per mL during culturing and cells should be supplemented every 2-3 days with fresh 50 μM beta-mercaptoethanol. No beta-mercaptoethanol was used during the mesoscale assay.
(§3) For the Mesoscale assay, 100,000 OCI-LY3 cells were seeded per well into black-colored 96-well plates with clear bottom (Corning #3904) and test compounds were added in 9 dilution steps (1:2) ranging from 15 μM to 58.6 nM (final DMSO concentration 0.3%). DMSO control wells were used to determine the maximum signal (High Control (HC)). Treatment with the BTK inhibitor RN486 in a dose range from 30 nM to […] (9 dilutions of 1:2) served as a positive control for NFKB pathway inhibition and was used to determine the maximum inhibition (Low Control (LC)). Compounds and cells were incubated for 24 h at 37° C. and 5% CO2 (assay volume is 150 μL). After 24 h of incubation 50 μL of the supernatant was transferred to a MSD plate (V-Plex Proinflammation Panel 1 (human) kit, Mesoscale (MSD)) and incubated for 2 h with vigorous shaking (600 rpm) at room temperature. Following incubation, plates were washed 3× with PBS+0.05% Tween-20 and 25 μL detection antibody solution (IL6 & IL10 antibodies in diluent 3 (MSD)) was added per well followed by 2 h of incubation with vigorous shaking (600 rpm) at room temperature. After 3× washes with PBS+0.05% Tween-20, plates were incubated with 150 μL 2× Read Buffer T and read on SECTOR imager.

[2] = tested on: secretion of IL10 by OCI-LY3 ABC-DLBCL cells; assay: Human IL10 Mesoscale assay (OCI-LY3); format: cell-based; settings: 24 h incubation, IL10 in supernatant
Procedure: as §1, §2, §3

[3] = target: T1, full-length MALT1 protein (Strep-MALT1(1-824)-His) (Homo sapiens, UniProt Q9UDY8); assay: MALT1 Biochemical Protease Assay; settings: 10 nM FL MALT1, 200 μM Ac-LRSR-AMC, 50 min pre-incubation, 4 h at RT; read-out: MALT1_Biochemical activity (Ac-LRSR-amc) IC50
T1 construct: full-length MALT1 protein (Strep-MALT1(1-824)-His) purified from baculovirus-infected insect cells; Strep (N); His (C); made in house; host or cells: baculovirus-infected insect cells
T1 sequence (Q9UDY8 1-824): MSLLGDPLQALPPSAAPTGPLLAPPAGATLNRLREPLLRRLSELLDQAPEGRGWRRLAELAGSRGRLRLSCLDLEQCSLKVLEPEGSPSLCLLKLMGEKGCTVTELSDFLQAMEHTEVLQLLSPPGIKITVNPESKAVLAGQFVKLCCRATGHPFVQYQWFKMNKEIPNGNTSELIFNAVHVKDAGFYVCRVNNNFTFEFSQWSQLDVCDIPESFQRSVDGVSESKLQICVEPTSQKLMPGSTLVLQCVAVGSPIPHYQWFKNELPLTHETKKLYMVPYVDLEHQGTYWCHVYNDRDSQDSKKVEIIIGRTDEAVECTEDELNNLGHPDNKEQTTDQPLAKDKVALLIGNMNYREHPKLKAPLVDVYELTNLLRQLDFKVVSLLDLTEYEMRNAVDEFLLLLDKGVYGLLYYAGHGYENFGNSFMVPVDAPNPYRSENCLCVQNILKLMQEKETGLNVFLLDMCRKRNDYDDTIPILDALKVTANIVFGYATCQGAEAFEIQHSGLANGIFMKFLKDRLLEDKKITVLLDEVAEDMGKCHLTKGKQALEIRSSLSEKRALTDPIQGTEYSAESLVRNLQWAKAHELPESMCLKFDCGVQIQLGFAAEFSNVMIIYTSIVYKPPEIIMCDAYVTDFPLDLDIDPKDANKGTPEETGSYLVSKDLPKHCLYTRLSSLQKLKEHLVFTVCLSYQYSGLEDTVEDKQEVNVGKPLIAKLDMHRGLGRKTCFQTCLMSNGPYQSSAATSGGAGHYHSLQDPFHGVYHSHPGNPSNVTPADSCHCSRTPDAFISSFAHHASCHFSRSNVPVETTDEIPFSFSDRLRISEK
Procedure, shortened: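 Full-length Strep-MALT1(1-824)-His from baculovirus-infected insect cells, 10 nM, preincubated with compound 50 min at RT; 200 μM Ac-LRSR-AMC (KM) in 50 mM Tris pH 7.5, 0.6 M citrate, 1 mM DTT, 1 mM EDTA, 0.05% BSA, 1.5% DMSO. Fluorescence 355/460 nm, 4 h minus time 0; 11-point 1:3 series 30 μM–0.5 nM, IC50 with Hill slope.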

Compound `CO[C@H](C)c1c(NC(=O)Nc2cnc(-n3nccn3)c(C(F)(F)F)c2)cnc(C)c1Br` [Co. 58] has an IC50 [1] of 760 nM, an IC50 [2] of 300 nM and an IC50 [3] of 200 nM.

`CO[C@@H](C)c1c(NC(=O)Nc2cnc(-n3nccn3)c(Cl)c2)cnc(C)c1C#N` [Co. 61] gave an IC50 [1] of 130 nM, an IC50 [2] of 90 nM and an IC50 [3] of 40 nM.

In the case of `CO[C@H](C)c1c(NC(=O)Nc2cnc(-n3nccn3)c(Cl)c2)cnc(C)c1C#N` [Co. 62], the IC50 [1] is reported as 750 nM, the IC50 [2] is reported as 450 nM and the IC50 [3] is reported as 220 nM.

Compound `CO[C@H](C)c1c(NC(=O)Nc2ccnc(C(F)(F)F)c2)cnc(C)c1Cl` [Co. 64] has an IC50 [1] of 680 nM, an IC50 [2] of 190 nM and an IC50 [3] of 170 nM.

`CO[C@H](C)c1c(NC(=O)Nc2cnc(C3CC3)c(C(F)(F)F)c2)cnc(C)c1Cl` [Co. 67] gave an IC50 [1] of 4170 nM, an IC50 [2] of 1780 nM and an IC50 [3] of 1950 nM.

In the case of `CO[C@@H](C)c1c(NC(=O)Nc2cnc(OC(F)F)c(Cl)c2)cnc(C)c1C#N` [Co. 70], the IC50 [1] is reported as 60 nM, the IC50 [2] is reported as 30 nM and the IC50 [3] is reported as 50 nM.

For `CO[C@@H](C)c1c(NC(=O)Nc2cnc(OC(F)F)c(Cl)c2)cnc(C)c1Cl` [Co. 73], the IC50 [1] was 110 nM, the IC50 [2] was 60 nM and the IC50 [3] was 80 nM.

Work on `CO[C@H](C)c1c(NC(=O)Nc2cnc(OC(F)F)c(Cl)c2)cnc(C)c1Cl` [Co. 74] yielded an IC50 [1] of 930 nM, an IC50 [2] of 650 nM and an IC50 [3] of 1350 nM.

`COc1ncc(NC(=O)Nc2cnc(C)c(Cl)c2[C@H](C)OC)cc1C#N` [Co. 76] was tested, and the IC50 [1] was 130 nM, the IC50 [2] was 110 nM and the IC50 [3] was 160 nM.

`COc1ncc(NC(=O)Nc2cnc(C)c(Cl)c2[C@@H](C)OC)cc1C#N` [Co. 77] was tested, and the IC50 [1] was 7590 nM, the IC50 [2] was 6030 nM and the IC50 [3] was 8320 nM.

In the case of `COc1nc(-n2nccn2)c(Cl)cc1NC(=O)Nc1cnc(C)c(C#N)c1[C@@H](C)OC` [Co. 79], the IC50 [1] is reported as 110 nM, the IC50 [2] is reported as 60 nM and the IC50 [3] is reported as 20 nM.

Work on `COc1nc(-n2nccn2)c(Cl)cc1NC(=O)Nc1cnc(C)c(C#N)c1[C@H](C)OC` [Co. 80] yielded an IC50 [1] of 150 nM, an IC50 [2] of 90 nM and an IC50 [3] of 50 nM.

Work on `COc1nc(-n2nccn2)c(Cl)cc1NC(=O)Nc1cnc(C)c(Cl)c1[C@@H](C)OC` [Co. 82] yielded an IC50 [1] of 120 nM, an IC50 [2] of 90 nM and an IC50 [3] of 50 nM.

With `COc1nc(-n2nccn2)c(Cl)cc1NC(=O)Nc1cnc(C)c(Cl)c1[C@H](C)OC` [Co. 83] the IC50 [1] was 500 nM, the IC50 [2] was 180 nM and the IC50 [3] was 350 nM.

Work on `COc1nc(-n2nccn2)c(Cl)cc1NC(=O)Nc1cnc(C)c(Br)c1[C@@H](C)OC` [Co. 85] yielded an IC50 [1] of 100 nM, an IC50 [2] of 50 nM and an IC50 [3] of 30 nM.

`CO[C@H](C)c1c(NC(=O)Nc2cc(Cl)c(-n3nccn3)nc2C)cnc(C)c1C#N` [Co. 88] was tested, and the IC50 [1] was 290 nM, the IC50 [2] was 170 nM and the IC50 [3] was 100 nM.

`CO[C@@H](C)c1c(NC(=O)Nc2cc(Cl)c(-n3nccn3)nc2C)cnc(C)c1C#N` [Co. 89] showed an IC50 [1] of 250 nM, an IC50 [2] of 160 nM and an IC50 [3] of 110 nM.

`CO[C@H](C)c1c(NC(=O)Nc2cnc(-n3nccn3)c(C#N)c2)cnc(C)c1Br` [Co. 91] gave an IC50 [1] of 90 nM, an IC50 [2] of 50 nM and an IC50 [3] of 20 nM.

For `CO[C@@H](C)c1c(NC(=O)Nc2cnc(-n3nccn3)c(C#N)c2)cnc(C)c1Br` [Co. 92], the IC50 [1] was 3020 nM, the IC50 [2] was 1510 nM and the IC50 [3] was 690 nM.

`COc1ncc(NC(=O)Nc2cnc(C)c(Br)c2[C@H](C)OC)cc1C#N` [Co. 97] showed an IC50 [1] of 140 nM, an IC50 [2] of 90 nM and an IC50 [3] of 80 nM.

`CO[C@H](C)c1c(NC(=O)Nc2cnc(-n3nccn3)c(C(F)(F)F)c2)cnc(C)c1C#N` [Co. 100] gave an IC50 [1] of 90 nM, an IC50 [2] of 60 nM and an IC50 [3] of 30 nM.

In the case of `CO[C@@H](C)c1c(NC(=O)Nc2cnc(-n3nccn3)c(C(F)(F)F)c2)cnc(C)c1C#N` [Co. 101], the IC50 [1] is reported as 240 nM, the IC50 [2] is reported as 150 nM and the IC50 [3] is reported as 210 nM.

`CO[C@@H](C)c1c(NC(=O)Nc2cnc(-n3nccn3)c(Cl)c2)cnc(C)c1Cl` [Co. 105] was tested, and the IC50 [1] was 120 nM, the IC50 [2] was 60 nM and the IC50 [3] was 40 nM.

`CO[C@@H](C)c1c(NC(=O)Nc2cnc(-n3nccn3)c(C(F)(F)F)c2)cnc(C)c1Cl` [Co. 111] showed an IC50 [1] of 90 nM, an IC50 [2] of 60 nM and an IC50 [3] of 30 nM.

With `CO[C@H](C)c1c(NC(=O)Nc2cnc(-n3nccn3)c(C(F)(F)F)c2)cnc(C)c1Cl` [Co. 112] the IC50 [1] was 870 nM, the IC50 [2] was 480 nM and the IC50 [3] was 680 nM.

`CO[C@@H](C)c1c(NC(=O)Nc2cnc(-n3ncc([C@@H](C)O)n3)c(Cl)c2)cnc(C)c1C#N` [Co. 115] gave an IC50 [1] of 230 nM, an IC50 [2] of 100 nM and an IC50 [3] of 60 nM.

For `CO[C@@H](C)c1c(NC(=O)Nc2cnc(-n3nccn3)c(Cl)c2)cnc(N)c1Br` [Co. 118], the IC50 [1] was 2750 nM, the IC50 [2] was 1510 nM and the IC50 [3] was 480 nM.

`CO[C@H](C)c1c(NC(=O)Nc2cnc(-n3nccn3)c(Cl)c2)cnc(N)c1Br` [Co. 119] was tested, and the IC50 [1] was 90 nM, the IC50 [2] was 50 nM and the IC50 [3] was 20 nM.

Work on `CO[C@@H](c1c(NC(=O)Nc2cnc(-n3nccn3)c(C(F)(F)F)c2)cnc(C)c1C#N)C1CC1` [Co. 121] yielded an IC50 [1] of 60 nM, an IC50 [2] of 40 nM and an IC50 [3] of 20 nM.

`CO[C@H](c1c(NC(=O)Nc2cnc(-n3nccn3)c(C(F)(F)F)c2)cnc(C)c1C#N)C1CC1` [Co. 122] gave an IC50 [1] of 140 nM, an IC50 [2] of 130 nM and an IC50 [3] of 60 nM.

`COc1cncc(NC(=O)Nc2cnc(-n3nccn3)c(C(F)(F)F)c2)c1[C@@H](C)OC` [Co. 124] was tested, and the IC50 [1] was 150 nM, the IC50 [2] was 110 nM and the IC50 [3] was 80 nM.

`COc1cncc(NC(=O)Nc2cnc(-n3nccn3)c(C(F)(F)F)c2)c1[C@H](C)OC` [Co. 125] gave an IC50 [1] of 4570 nM, an IC50 [2] of 2240 nM and an IC50 [3] of 1450 nM.

With `COc1nc(-n2nccn2)c(C(F)(F)F)cc1NC(=O)Nc1cnc(NC(C)(C)C)c(Br)c1C(C)OC` (stereo not drawn) [Co. 151] the IC50 ([1]; Homo sapiens) was greater than 15000 nM, the IC50 ([2]; Homo sapiens) was greater than 15000 nM and the IC50 [3] was greater than 30000 nM.

Compound `COc1c(NC(C)(C)C)ncc(NC(=O)Nc2cnc(-n3nccn3)c(C(F)(F)F)c2)c1C(C)OC` (stereo not drawn) [Co. 152] has an IC50 ([1]; Homo sapiens) greater than 15000 nM, an IC50 ([2]; Homo sapiens) greater than 15000 nM and an IC50 [3] greater than 30000 nM.
